From paper PMC8760323, “Single-chain tandem macrocyclic peptides as a scaffold for growth factor and cytokine mimetics” (Communications Biology, 2022)

Key:
Assay type in all cases: cell-based, human
HuCCT1 cells [1] = assay: Proliferation assay, HuCCT1 cells; details: 5 days, 0.44 nM rhHGF or […] aMD4dY-PA22; for Relative cell growth: normalized by mock
Protocol: The activity of aMD4dY-PA22 against HuCCT1 cell and BM-hMSC proliferation was evaluated. HuCCT1 cells at a density of 5000 cells/well were seeded on a 24-well cell culture plate with RPMI 1640 medium supplemented with 5% FBS with or without 0.44 nM rhHGF or 6.3 nM aMD4dY-PA22. After 5 days of culture in 5% CO2 at 37 °C, the cells were detached by 0.25% trypsin/ethylenediaminetetraacetic acid (EDTA; Thermo Fisher Scientific) and counted using a Countess automated cell counter (Thermo Fisher Scientific).

Met = assay: SRE reporter assay for HGF activity (Erk-SRE, HEK293 cells); details: N=1; for Normalized Firefly/Renilla: Fig. S6b/c, 420 nM rhHGF
Protocol: The Met-activating ability of HGF mimetic STaMPtides was evaluated by SRE reporter assay using the SRE reporter vector (QIAGEN, Hilden, Germany) according to the manufacturer’s instructions. Briefly, 1 μL of the SRE reporter vector was mixed with 0.6 μL of Attractene Transfection Reagent (QIAGEN) in 50 μL of Opti-MEM medium (Thermo Fisher Scientific) to form a transfection complex. Next, HEK293 cells at a density of 40,000 cells/well were seeded on 96-well cell culture plates with the transfection complex and incubated overnight in 5% CO2 at 37 °C. The cells were starved with Opti-MEM containing 0.5% FBS, 1% non-essential amino acid solution, and penicillin-streptomycin and incubated at 37 °C for 4 h. Next, the cells were stimulated by rhHGF, purified HGF mimetic STaMPtides, monomeric aMD4dY, or decellularized supernatant overnight in a 5% CO2 incubator at 37 °C. The signal intensity was detected using the dual-luciferase reporter assay system (Promega Corporation) and a Nivo plate reader (PerkinElmer, Inc., Waltham, MA, USA). Reporter activity was calculated as (luminescence intensity of Firefly luciferase)/(luminescence intensity of Renilla luciferase) and normalized by that without a stimulant in order to determine the relative reporter activity.

hPBMCs = assay: Colony-forming assay; details: sheet Fig. 4, Fig. 4b
Protocol: Next, 1.1 mL of the mixture was seeded in a 6-well cell culture plate and cultured for 13 days in 5% CO2 at 37 °C. At day 13, colony numbers were counted, and images were taken by inverted microscopy and BZ-X fluorescence microscopy.

RTKs = assay: Phospho-RTK array; details: 1.3 nM rhHGF or 32 nM aMD4dY-PA22, 10 min
Protocol: Ligand specificity against RTKs was evaluated using the Proteome Profiler Human Phospho-RTK Array Kit (R&D Systems). Confluent HEK293 cells in a 10 cm cell culture dish were starved in DMEM supplemented with 0.5% FBS and penicillin-streptomycin for 24 h. The starved cells were stimulated by 1.3 nM rhHGF or 32 nM aMD4dY-PA22 for 10 min, rinsed once with PBS, and lysed with 1 mL of lysis buffer 17 (R&D Systems) supplemented with a protease inhibitor cocktail (Nacalai Tesque). Lysates were analyzed using the Proteome Profiler Human Phospho-RTK Array Kit (R&D Systems) according to the manufacturer’s instructions. Chemiluminescence was detected using the Molecular Imager ChemiDoc XRS System (Bio-Rad Laboratories).

BM-hMSCs [2] = assay: Flow cytometry of MSC surface markers; details: for surface marker expression of stimulated BM-hMSCs: 3 days; for CD45 Positive (%) / CD90 Positive (%): flow cytometry, Fig. S11b
Protocol: The marker expression of BM-hMSCs unstimulated or stimulated using 1.3 nM rhHGF or 32 nM aMD4dY-PA22 for 3 days were analyzed via flow cytometry. Harvested cells were blocked with PBS supplemented with Human TruStain FcX (Biolegend) for 10 min on ice. […] For the isotype controls, 1:10 diluted PE mouse IgG1 k Isotype (Biolegend) and FITC mouse IgG1 k Isotype (Biolegend) were utilized. After washing two times with a cell stain buffer, cells were analyzed using Attune NxT flow cytometer (Thermo Fisher Scientific).

BM-hMSCs [3] = assay: Cytokine array of conditioned media; details: 3 days
Protocol: The conditioned media (supernatant) of BM-hMSCs unstimulated or stimulated with 1.3 nM rhHGF or 32 nM aMD4dY-PA22 for 3 days were filtered using Millex-GV 0.22 µm PVDF membrane filter (Millipore) and analyzed using Human Cytokine Array C5 (Ray Biotech) according to the manufacturer’s instructions. Chemiluminescence was detected using Amersham Imager 600 (Cytiva).

HuCCT1 cells [4] = assay: Migration assay (Transwell); details: 24 h, 1.3 nM rhHGF or 32 nM aMD4dY-PA22; for Relative migration: standardized by mock
Protocol: HuCCT1 cells at a density of 20,000 cells/well in RPMI 1640 medium supplemented with 0.5% FBS were added to 24-well Transwell inserts. In the lower layer, RPMI 1640 supplemented with 0.5% FBS with or without 1.3 nM rhHGF or 32 nM aMD4dY-PA22 was added. The cells were incubated for 24 h in 5% CO2 at 37 °C. The Transwell inserts were washed thrice with PBS, stained with 0.5% crystal violet (Nacalai Tesque)/methanol for 10 min, and washed with distilled water. Images of migrated cells were captured using BZ-X fluorescence microscopy (Keyence Corporation, Osaka, Japan), and cell migration levels were quantified by stained areas of the Transwell inserts.

BM-hMSCs [5] = assay: Proliferation assay, BM-hMSCs (WST-8); details: 3 days, 1.3 nM rhHGF or 32 nM aMD4dY-PA22; for WST-8 absorbance, Normalized: normalized by mock
Protocol: BM-hMSC cells at a density of 2500 cells/well were seeded on a 96-well cell culture plate with DMEM supplemented with 10% FBS with or without 1.3 nM rhHGF or 32 nM aMD4dY-PA22. After 3 days of culture in 5% CO2 at 37 °C, Cell Counting Reagent SF (Dojindo Laboratories, Japan) was added to the cells. After 1 h incubation, cell numbers were quantified by detection of absorbance at 450 nm using the Benchmark Plus plate reader (Bio-Rad Laboratories, Hercules, CA, USA).

Row | Substance | proliferation compared to the unstimulated condition (HuCCT1 cells [1]) | Relative cell growth (HuCCT1 cells [1]; N 1) | Relative cell growth (HuCCT1 cells [1]; N 2) | Relative cell growth (HuCCT1 cells [1]; N 3) | Colony number (hPBMCs; N 1) | Colony number (hPBMCs; N 2) | Colony number (hPBMCs; N 3) | Colony number (hPBMCs; N 4) | selectivity against RTKs (RTKs) | surface marker expression of stimulated BM-hMSCs (BM-hMSCs [2]) | CD45 Positive (%) (BM-hMSCs [2]; replicate 1) | CD90 Positive (%) (BM-hMSCs [2]; replicate 1) | CD45 Positive (%) (BM-hMSCs [2]; replicate 2) | CD90 Positive (%) (BM-hMSCs [2]; replicate 2) | cytokines and growth factors in conditioned supernatant (BM-hMSCs [3]) | migration (HuCCT1 cells [4]) | Stained area (HuCCT1 cells [4]; n1) | Stained/Total (HuCCT1 cells [4]; n1) | Stained area (HuCCT1 cells [4]; n2) | Stained/Total (HuCCT1 cells [4]; n2) | also measured
1 | rhHGF: recombinant human HGF (R&D Systems) | twofold | 2.286 | 2.429 | 2.071 | 88.8457 | 100.748 | 98.5177 | 94.0632 | highly Met-selective | expressed hMSC positive markers (CD105, CD73, CD90) and no negative markers (CD45, CD34) | 1.409% | 99.927% | 1.405% | 99.878% | to the same extent as unstimulated parental BM-hMSCs | promoted migration of HuCCT1 cells | 1050763 μm^2 | 0.03941 | 1394072 μm^2 | 0.04835 | Normalized F/R (Met; Fig. S6a, 2.008 pM): 0.9952; Normalized F/R (Met; Fig. S6a, 10.04 pM): 0.9963; Normalized F/R (Met; Fig. S6a, 50.19 pM): 1.192; Normalized F/R (Met; Fig. S6a, 250.9 pM): 3.768; Normalized F/R (Met; Fig. S6a, 1.25471e-9 M): 8.884; Normalized Firefly/Renilla (Met; dilution 1000): 9.87; Normalized Firefly/Renilla (Met; dilution 10000): 1.622; Relative migration (HuCCT1 cells [4]; n1): 2.3393; Relative migration (HuCCT1 cells [4]; n2): 2.87; growth of BM-hMSCs (BM-hMSCs [5]): slightly promoted proliferation; WST-8 absorbance, Normalized (BM-hMSCs [5]; N 1): 1.1816; WST-8 absorbance, Normalized (BM-hMSCs [5]; N 2): 1.335; WST-8 absorbance, Normalized (BM-hMSCs [5]; N 3): 1.247
2 | AET - CRQFNRRTHEVWNLDCG - AAPAAPA PAAPAAPA PAAPAA PG - CRQFNRRTHEVWNLDC (bicyclic or more) [aMD4dY-PA22, HGF mimetic STaMPtide, two aMD4dY macrocycles with a 22-amino-acid PA linker, secreted by C. glutamicum] | twofold | 2.429 | 2.429 | 2.571 | 104.419 | 110.38 | 95.5447 | 95.787 | highly Met-selective | expressed hMSC positive markers (CD105, CD73, CD90) and no negative markers (CD45, CD34) | 0.665% | 99.857% | 1.718% | 99.76% | to the same extent as unstimulated parental BM-hMSCs | promoted migration of HuCCT1 cells | 1905662 μm^2 | 0.07439 | 1256153 μm^2 | 0.04693 | Normalized F/R (Met; Fig. S6d, supernatant, dilution 10): 4.6947; Normalized F/R (Met; Fig. S6d, supernatant, dilution 30): 5.172; Normalized F/R (Met; Fig. S6d, supernatant, dilution 90): 5.6777; Normalized F/R (Met; Fig. S6d, supernatant, dilution 810): 3.099; Normalized F/R (Met; Fig. S6d, supernatant, dilution 2430): 1.722; Erk-SRE reporter activity of decellularized supernatants (Met; rapid screening without purification): highest activity; Relative migration (HuCCT1 cells [4]; n1): 4.415; Relative migration (HuCCT1 cells [4]; n2): 2.785; growth of BM-hMSCs (BM-hMSCs [5]): slightly promoted proliferation; WST-8 absorbance, Normalized (BM-hMSCs [5]; N 1): 1.155; WST-8 absorbance, Normalized (BM-hMSCs [5]; N 2): 1.175; WST-8 absorbance, Normalized (BM-hMSCs [5]; N 3): 1.237
